Laboratory results reported in US20120115801A1, “METHOD FOR OBTAINING A STABLE DISPERSION OF BENZOYL PEROXIDE” (Dow Pharmaceutical Sciences, Inc., priority 2008, published 2012).

Assays:
[1] = visual inspection of the benzoyl peroxide suspension and wet-milling (Gaulin Mill) to a micro-suspension; settings: for stability of micro-suspension after wet-milling: Gaulin Mill, no surfactants
Protocol: A suspension was prepared containing 33.2% w/w hydrous benzoyl peroxide utilizing a dispersing fluid containing 34.0% w/w propylene glycol and 66% w/w water. Into a 200 gallon stainless steel tank, 175 kg of purified water and 90 kg of propylene glycol were combined. The combination was agitated with a propeller mixer to form a mixture. While mixing, 132 kg of hydrous benzoyl peroxide. (74.5% benzoyl peroxide) powder was added. Mixing continued at 1024 rpm for about 20 minutes to wet and disperse the benzoyl peroxide powder and to obtain a benzoyl peroxide suspension.
The suspension was passed through a Gaulin Mill for micronization using a wet-milling method. […] The propylene glycol content was diluted upon incorporation of benzoyl peroxide suspension into the final topical dosage form to make the 6.26% benzoyl peroxide gel.
A suspension was prepared containing 24.8% w/w hydrous benzoyl peroxide utilizing a dispersing fluid containing 9.4% w/w propylene glycol and 90.6% w/w water. Into a stainless steel tank, 36 kg of purified water and 3.75 kg of propylene glycol were combined. The combination was agitated with a propeller mixer to form a mixture. While mixing, 13.12 kg of hydrous benzoyl peroxide (74.5% benzoyl peroxide) was added. Mixing continued at 1450 rpm for about 10 minutes to wet and disperse the benzoyl peroxide powder and to obtain a benzoyl peroxide suspension.
This suspension was transferred to a Gaulin Mill for micronization using a wet-milling method.
A suspension was prepared containing 24.7% benzoyl peroxide (hydrous) utilizing a dispersing fluid containing 47.6% w/w propylene glycol and 52.4% w/w water. Into a stainless steel tank, 27.5 kg of purified water and 25 kg of propylene glycol were combined. The combination was agitated with a propeller mixer to form a mixture. While mixing, 17.19 kg of hydrous benzoyl peroxide (74.5% benzoyl peroxide) was added. Mixing continued at 858 rpm for about 1 hour to wet and disperse the benzoyl peroxide powder and to obtain a benzoyl peroxide suspension.
This suspension was passed through a Gaulin Mill for micronization using a wet-milling method. […] The propylene glycol content was diluted upon combining the benzoyl peroxide suspension with the clindamycin solution to form the final pharmaceutical product.

[2] = benzoyl peroxide wettability study; format: physicochemical; settings: 1.5 g powder, agitated as in Example 1
Protocol: A benzoyl peroxide wettability study was conducted as follows. 1.5 grams of a hydrous benzoyl peroxide powder was spread on the surface of each of three test fluids contained in glass beakers having about a 5 cm diameter, containing either 30 ml of purified water (Sample A), 30 ml of a fluid composed of 5% propylene glycol and 95% purified water (Sample B), or 30 ml of a fluid composed of 50% propylene glycol and 50% purified water (Sample C). At the bottom of each beaker was a 12 mm×8 mm magnetic stir bar. Each of the fluids, with the benzoyl peroxide powder on the surface, was stirred at 1200 rpm. After 5 and 10 minutes of stirring, the samples were visually inspected for the degree of wetting of the benzoyl peroxide. Good wetting was evidenced by visual determination of little or no agglomeration and/or crusting. It was determined that the wetting of the benzoyl peroxide in Sample A was poor, with little or no visual evidence of wetting. The wetting of the benzoyl peroxide in Sample B was determined to be good, with visual evidence of wetting of a significant portion of the benzoyl peroxide powder. The wetting of the benzoyl peroxide in Sample C was determined to be very good, with visual evidence of wetting of the majority of the benzoyl peroxide powder.
(§1) The wetting study of Example 1 was repeated utilizing 1.5 grams of benzoyl peroxide powder and 30 ml of a fluid composed of 7.5% ethanol and 92.5% water. The fluid with the benzoyl peroxide powder was agitated as described in Example 1. The wetting of the benzoyl peroxide in the fluid was determined to be very good, with visual evidence of wetting of the majority, about 90%, of the benzoyl peroxide powder.
as §1, with “20% polyethylene glycol (PEG 200)” for “7.5% ethanol”, “80%” for “92.5%”

[3] = 30 ml fluid of 7.5% ethanol and 92.5% water
[4] = 30 ml fluid of 20% polyethylene glycol (PEG 200) and 80% water

Structure (SMILES): O=C(OOC(=O)c1ccccc1)c1ccccc1 [benzoyl peroxide]
- stability of micro-suspension after wet-milling ([1]; Example 2: 33.2% w/w hydrous benzoyl peroxide in 34.0% w/w propylene glycol / 66% w/w water): stable
- appearance of suspension upon visual inspection ([1]; Example 2: 33.2% w/w hydrous benzoyl peroxide in 34.0% w/w propylene glycol / 66% w/w water, mixed 1024 rpm about 20 minutes): smooth and free of lumps
- stability of micro-suspension after wet-milling ([1]; Example 3: 24.8% w/w hydrous benzoyl peroxide in 9.4% w/w propylene glycol / 90.6% w/w water): stable
- appearance of suspension upon visual inspection ([1]; Example 3: 24.8% w/w hydrous benzoyl peroxide in 9.4% w/w propylene glycol / 90.6% w/w water, mixed 1450 rpm about 10 minutes): smooth and free of lumps
- stability of micro-suspension after wet-milling ([1]; Example 4: 24.7% benzoyl peroxide (hydrous) in 47.6% w/w propylene glycol / 52.4% w/w water): stable
- appearance of suspension upon visual observation ([1]; Example 4: 24.7% benzoyl peroxide (hydrous) in 47.6% w/w propylene glycol / 52.4% w/w water, mixed 858 rpm about 1 hour): smooth and free of lumps
- portion of the benzoyl peroxide powder wetted (visual evidence) [2, 3]: about 90%
- wetting of the benzoyl peroxide in the fluid (visual) [2, 3]: very good
- portion of the benzoyl peroxide powder wetted (visual evidence) [2, 4]: about 90%
- wetting of the benzoyl peroxide in the fluid (visual) [2, 4]: very good
